Reference: patent publication US20140135310A1, “SULPHONAMIDE DERIVATIVES OF ALICYCLIC AMINES FOR THE TREATMENT OF CENTRAL NERVOUS SYSTEM DISEASES” (Adamed Sp. z o.o., priority 2011, published 2014)

What was measured:
[1] = biological target: T1, 5-HT1A receptor (rat hippocampus) (Rattus norvegicus, UniProt P19327); assay: Radioligand binding assay, serotoninergic 5-HT1A receptors; settings: binding assay result in %, Table 5a;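 further: test compound at 1 µM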
T1 construct: hippocampus; from tissue; host or cells: rat hippocampus
T1 sequence (P19327 1-422): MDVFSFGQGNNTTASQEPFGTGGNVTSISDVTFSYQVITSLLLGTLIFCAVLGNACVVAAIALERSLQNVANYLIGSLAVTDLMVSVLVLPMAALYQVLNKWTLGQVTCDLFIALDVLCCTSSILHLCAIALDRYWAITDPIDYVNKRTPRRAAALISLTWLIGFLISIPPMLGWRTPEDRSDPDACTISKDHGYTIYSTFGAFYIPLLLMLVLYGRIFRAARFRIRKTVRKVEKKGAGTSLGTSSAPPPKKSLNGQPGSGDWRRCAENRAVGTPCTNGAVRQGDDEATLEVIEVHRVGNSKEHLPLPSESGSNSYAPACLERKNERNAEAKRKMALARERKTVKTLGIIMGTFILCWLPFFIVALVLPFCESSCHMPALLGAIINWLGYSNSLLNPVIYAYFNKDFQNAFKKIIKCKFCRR

[2] = biological target: T2, serotonin transporter (SERT) (Homo sapiens, UniProt P31645); assay: Radioligand binding assay, serotonin transporter (SERT); settings: binding assay, test compound 1×10^−6 M
T2 construct: expressed in transfected cells; host or cells: CHO cells
T2 sequence (P31645 whole entry): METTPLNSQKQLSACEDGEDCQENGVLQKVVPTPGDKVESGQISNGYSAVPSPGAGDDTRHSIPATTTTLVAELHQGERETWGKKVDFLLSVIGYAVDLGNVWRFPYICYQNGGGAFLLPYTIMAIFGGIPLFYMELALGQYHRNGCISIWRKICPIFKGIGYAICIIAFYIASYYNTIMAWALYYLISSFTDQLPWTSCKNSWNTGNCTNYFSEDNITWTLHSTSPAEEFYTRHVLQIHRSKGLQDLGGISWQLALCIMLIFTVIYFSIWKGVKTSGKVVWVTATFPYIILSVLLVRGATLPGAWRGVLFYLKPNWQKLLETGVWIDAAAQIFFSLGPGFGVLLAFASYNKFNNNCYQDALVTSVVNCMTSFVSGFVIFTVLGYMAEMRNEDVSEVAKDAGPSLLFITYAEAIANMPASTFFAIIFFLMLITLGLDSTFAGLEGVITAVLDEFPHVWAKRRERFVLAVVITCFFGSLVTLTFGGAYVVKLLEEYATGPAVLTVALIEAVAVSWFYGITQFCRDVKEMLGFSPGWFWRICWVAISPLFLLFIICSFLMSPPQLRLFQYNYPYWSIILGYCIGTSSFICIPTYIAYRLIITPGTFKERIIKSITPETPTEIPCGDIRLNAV
Method in brief: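 Radioligand competition binding with scintillation detection; specific binding is total minus binding under excess unlabelled ligand. Reported as % of control specific binding or % inhibition; IC50 from Hill-equation non-linear regression of competition curves, and Ki via Cheng-Prusoff using radioligand concentration and Scatchard-derived KD.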

[3] = biological target: dopaminergic receptors D2 (Homo sapiens, UniProt P14416); assay: Radioligand binding assay, dopaminergic D2 receptors; settings: for Ki: read-out: Inhibition constants Ki for D2 receptors, D2
Chain of dopaminergic receptors D2 (P14416 whole entry): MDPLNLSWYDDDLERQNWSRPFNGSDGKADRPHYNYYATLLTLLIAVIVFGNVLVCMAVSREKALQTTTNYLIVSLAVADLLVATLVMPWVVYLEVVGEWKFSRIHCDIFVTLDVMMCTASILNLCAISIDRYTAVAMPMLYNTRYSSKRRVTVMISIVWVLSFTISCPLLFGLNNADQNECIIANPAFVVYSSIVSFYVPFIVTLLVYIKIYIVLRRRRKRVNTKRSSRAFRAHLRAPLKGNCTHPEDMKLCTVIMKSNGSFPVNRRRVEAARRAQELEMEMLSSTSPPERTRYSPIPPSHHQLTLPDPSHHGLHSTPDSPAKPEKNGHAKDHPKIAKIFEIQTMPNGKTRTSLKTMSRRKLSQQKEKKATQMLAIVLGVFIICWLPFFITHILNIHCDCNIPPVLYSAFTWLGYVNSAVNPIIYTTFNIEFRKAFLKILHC
Method in brief: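 Total binding is counted by scintillation and non-specific binding subtracted using an excess of unlabelled ligand. IC50 comes from a Hill-equation fit with slope factor; Ki follows Cheng–Prusoff.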

[4] = tested on: α1 adrenergic receptors (rat cerebral cortex); assay: Radioligand binding assay, adrenergic α1 receptors; settings: test compound 1×10^−6 M
Method in brief: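 Values derive from radioligand displacement, with non-specific binding defined by excess cold ligand and detection by scintillation. Hill-fit IC50s were converted to Ki via Cheng-Prusoff using Scatchard-derived Kd; percent inhibition of control specific binding also reported.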

α2C adrenergic receptors = biological target: T3, α2C adrenergic receptors (Homo sapiens, UniProt P18825); assay: Radioligand binding assay, adrenergic α2C receptors; settings: test compound 1×10^−6 M
T3 construct: expressed in transfected cells; host or cells: CHO cells
T3 sequence (P18825 1-462): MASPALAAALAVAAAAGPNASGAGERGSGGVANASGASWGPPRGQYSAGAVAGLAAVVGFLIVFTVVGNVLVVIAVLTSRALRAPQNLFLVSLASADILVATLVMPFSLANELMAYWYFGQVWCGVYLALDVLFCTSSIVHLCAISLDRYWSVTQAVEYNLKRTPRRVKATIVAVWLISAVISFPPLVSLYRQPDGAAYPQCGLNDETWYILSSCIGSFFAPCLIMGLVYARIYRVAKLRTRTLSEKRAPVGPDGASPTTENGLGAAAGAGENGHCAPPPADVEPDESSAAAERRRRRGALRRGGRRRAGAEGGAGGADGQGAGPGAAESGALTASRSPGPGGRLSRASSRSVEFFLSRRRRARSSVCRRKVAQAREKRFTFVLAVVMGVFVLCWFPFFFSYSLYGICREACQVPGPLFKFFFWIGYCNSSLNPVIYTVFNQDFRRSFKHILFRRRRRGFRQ
Excerpt: The specific ligand binding to the receptors is defined as the difference between the total binding and the non-specific binding determined in the presence of the excess of unlabelled ligand.
The results are expressed as a percent of control specific binding ((measured specific binding/control specific binding)×100) and as a percent inhibition of control specific binding (100−((measured specific binding/control specific binding)×100)) obtained in the presence of the test compounds. The specific ligand binding to the receptors is defined as the difference between the total binding and the nonspecific binding determined in the presence of an excess of unlabelled ligand. Scintillation counting was the method of detection of ligand binding. The IC50 values (concentration causing a half-maximal inhibition of control specific binding) were determined by non-linear regression analysis of the competition curves generated with mean replicate values using Hill equation curve fitting (Y=D+[(A−D)/(1+(C/C50)nH)], where Y=specific binding, D=minimum specific binding, A=maximum specific binding, C=compound concentration, C50=IC50, and nH=slope factor). This analysis was performed using a software developed at Cerep (Hill software) and validated by comparison with data generated by the commercial software SigmaPlot® 4.0 for Windows® (© 1997 by SPSS Inc.). The inhibition constants (Ki) were calculated using the Cheng Prusoff equation (Ki=IC50/(1+(L/KD)), where L=concentration of radioligand in the assay, and KD=affinity of the radioligand for the receptor). A scatchard plot was used to determine the Kd.
Experimental conditions for tests are given in Table 7, and results of tests for representative compounds are given in Tables 8 (α1 receptors) and in Tables 9 (α2C receptors).

[5] = binding assay, test compound 1×10^−6 M

Compound	inhibition at 1 µM [1] [%]	inhibition at 1 µM [2] [%]	inhibition at 1 µM [3, 5] [%]	α1 [%] [4] [%]	inhibition at 1 µM (α2C adrenergic receptors) [%]	Ki [3] [nM]	5-HT1A [%] [1] [%]	SERT [%] [2] [%]	D2 [%] [3, 5] [%]
O=S(=O)(NCC1CCN(CCOc2cccc3c2OCCO3)C1)c1ccc(F)c(Cl)c1 (stereo not drawn) [Compound 317, 3-Chloro-N-[[1-[2-(2,3-dihydro-1,4-benzodioxin-5-yloxy)ethyl]pyrrolidin-3-yl]methyl]-4-fluorobenzenesulphonamide]	100	63	53	84	95	–	–	–	–
Cn1ccc2cc(S(=O)(=O)NC3CCN(CCCc4noc5cc(F)ccc45)C3)ccc21 (stereo not drawn) [Compound 218, N-[1-[3-(6-Fluoro-1,2-benzoxazol-3-yl)propyl]pyrrolidin-3-yl]-1-methyl-indole-5-sulphonamide]	91	95	99	–	94	–	–	–	–
O=S(=O)(N[C@@H]1CCN(CCCc2noc3cc(F)ccc23)C1)c1cc2ccccc2s1 [Compound 196, N-[(3R)-1-[3-(6-Fluoro-1,2-benzoxazol-3-yl)propyl]pyrrolidin-3-yl]benzo-thiophene-2-sulphonamide]	54	42	100	95	89	0.8	–	–	–
O=S(=O)(N[C@H]1CCN(CCCc2noc3cc(F)ccc23)C1)c1cc2ccccc2s1 [Compound 197, N-[(3S)-1-[3-(6-Fluoro-1,2-benzoxazol-3-yl)propyl]pyrrolidin-3-yl]benzo-thiophene-2-sulphonamide]	56	58	101	93	90	5.8	–	–	–
O=S(=O)(N[C@@H]1CCN(CCCc2noc3cc(F)ccc23)C1)c1ccc2ccccc2c1 [Compound 206, N-[(3R)-1-[3-(6-Fluoro-1,2-benzoxazol-3-yl)propyl]pyrrolidin-3-yl]naphthalene-2-sulphonamide]	68	62	101	93	93	0.3	–	–	–
O=S(=O)(NC1CCN(CCCc2noc3cc(F)ccc23)C1)c1cc2ccc(F)cc2s1 (stereo not drawn) [Compound 234, 6-Fluoro-N-[1-[3-(6-fluoro-1,2-benzoxazol-3-yl)propyl]pyrrolidin-3-yl]benzothiophene-2-sulphonamide]	45	65	99	92	90	–	–	–	–
COc1cccc(S(=O)(=O)NCC2CN(CCCc3noc4cc(F)ccc34)C2)c1 [Compound 143, N-[[1-[3-(6-Fluoro-1,2-benzoxazol-3-yl)propyl]azetidin-3-yl]methyl]-3-methoxy-benzenesulphonamide]	44	6	80	97	78	–	–	–	–
O=S(=O)(NCC1CCN(CCOc2cccc3c2OCCO3)C1)c1ccc(Br)cc1 (stereo not drawn) [Compound 305, 4-Bromo-N-[[1-[2-(2,3-dihydro-1,4-benzodioxin-5-yloxy)ethyl]pyrrolidin-3-yl]methyl]benzenesulphonamide]	101	94	57	84	96	–	–	–	–
Cc1ccc2sc(S(=O)(=O)N[C@H]3CCN(CCCc4noc5cc(F)ccc45)C3)cc2c1 [Compound 229, N-[(3S)-1-[3-(6-Fluoro-1,2-benzoxazol-3-yl)propyl]pyrrolidin-3-yl]-5-methylbenzothiophene-2-sulphonamide]	46	50	101	89	98	2.4	–	–	–
O=S(=O)(NCC1CCN(CCOc2cccc3c2OCCO3)C1)c1cccc(O)c1 (stereo not drawn) [Compound 303, N-[[1-[2-(2,3-Dihydro-1,4-benzodioxin-5-yloxy)ethyl]pyrrolidin-3-yl]-methyl]-3-hydroxy-benzenesulphonamide]	96	73	79	89	100	–	–	–	–
Cc1c(S(=O)(=O)N[C@H]2CCN(CCCc3noc4cc(F)ccc34)C2)sc2ccc(F)cc12 [Compound 203, 5-Fluoro-N-[(3S)-1-[3-(6-fluoro-1,2-benzoxazol-3-yl)propyl]pyrrolidin-3-yl]-3-methyl-benzothiophene-2-sulphonamide]	60	73	101	91	93	0.9	–	–	–
O=S(=O)(NCC1CN(CCCc2noc3cc(F)ccc23)C1)c1cc2ccccc2s1 [Compound 127, N-[[1-[3-(6-Fluoro-1,2-benzoxazol-3-yl)propyl]azetidin-3-yl]methyl]benzo-thiophene-2-sulphonamide]	–	–	–	93	93	22	71	49	95
O=S(=O)(NCC1CCN(CCOc2cccc3c2OCCO3)C1)c1ccc2c(c1)CCO2 (stereo not drawn) [Compound 306, N-[[1-[2-(2,3-Dihydro-1,4-benzodioxin-5-yloxy)ethyl]pyrrolidin-3-yl]-methyl]-2,3-dihydrobenzofuran-5-sulphonamide]	99	90	51	90	98	–	–	–	–
Cc1c(S(=O)(=O)N[C@@H]2CCN(CCCc3noc4cc(F)ccc34)C2)sc2ccc(F)cc12 [Compound 202, 5-Fluoro-N-[(3R)-1-[3-(6-fluoro-1,2-benzoxazol-3-yl)propyl]pyrrolidin-3-yl]-3-methyl-benzothiophene-2-sulphonamide]	65	58	101	98	95	1.2	–	–	–
O=S(=O)(NCC1CCN(CCOc2cccc3c2OCCO3)C1)c1ccc(F)cc1 (stereo not drawn) [Compound 300, N-[[1-[2-(2,3-Dihydro-1,4-benzodioxin-5-yloxy)ethyl]pyrrolidin-3-yl]-methyl]-4-fluoro-benzenesulphonamide]	99	64	35	83	92	–	–	–	–
O=S(=O)(N[C@@H]1CCN(CCCc2noc3cc(F)ccc23)C1)c1ccc2cc(Cl)ccc2c1 [Compound 200, 6-Chloro-N-[(3R)-1-[3-(6-fluoro-1,2-benzoxazol-3-yl)propyl]pyrrolidin-3-yl]naphthalene-2-sulphonamide]	50	74	100	85	96	0.1	–	–	–
